Laboratory results reported in patent publication US9365588B2, “Benzoxazines as modulators of ion channels” (Vertex Pharmaceuticals Incorporated, priority 2011, dated 2016).

Target: human NaV 1.7 (Homo sapiens, UniProt Q15858)
Assay: E-VIPR optical membrane potential assay with electrical stimulation
Assay type: cell-based
Conditions: sodium channel inhibition; read-out: Binned Activity Data (IC50)
Method in brief: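 Membrane-potential read-out: background-subtracted 460 nm/580 nm ratio during a 9 s current-controlled stimulus, 400 Hz scan. Before stimulation, NaV1.7-HEK cells carried coumarin/oxonol dye and compound (final DMSO 0.625%) for 20–35 min at room temperature; tetracaine 125 μM served as positive control.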

Sequence of human NaV 1.7 (Q15858 whole entry): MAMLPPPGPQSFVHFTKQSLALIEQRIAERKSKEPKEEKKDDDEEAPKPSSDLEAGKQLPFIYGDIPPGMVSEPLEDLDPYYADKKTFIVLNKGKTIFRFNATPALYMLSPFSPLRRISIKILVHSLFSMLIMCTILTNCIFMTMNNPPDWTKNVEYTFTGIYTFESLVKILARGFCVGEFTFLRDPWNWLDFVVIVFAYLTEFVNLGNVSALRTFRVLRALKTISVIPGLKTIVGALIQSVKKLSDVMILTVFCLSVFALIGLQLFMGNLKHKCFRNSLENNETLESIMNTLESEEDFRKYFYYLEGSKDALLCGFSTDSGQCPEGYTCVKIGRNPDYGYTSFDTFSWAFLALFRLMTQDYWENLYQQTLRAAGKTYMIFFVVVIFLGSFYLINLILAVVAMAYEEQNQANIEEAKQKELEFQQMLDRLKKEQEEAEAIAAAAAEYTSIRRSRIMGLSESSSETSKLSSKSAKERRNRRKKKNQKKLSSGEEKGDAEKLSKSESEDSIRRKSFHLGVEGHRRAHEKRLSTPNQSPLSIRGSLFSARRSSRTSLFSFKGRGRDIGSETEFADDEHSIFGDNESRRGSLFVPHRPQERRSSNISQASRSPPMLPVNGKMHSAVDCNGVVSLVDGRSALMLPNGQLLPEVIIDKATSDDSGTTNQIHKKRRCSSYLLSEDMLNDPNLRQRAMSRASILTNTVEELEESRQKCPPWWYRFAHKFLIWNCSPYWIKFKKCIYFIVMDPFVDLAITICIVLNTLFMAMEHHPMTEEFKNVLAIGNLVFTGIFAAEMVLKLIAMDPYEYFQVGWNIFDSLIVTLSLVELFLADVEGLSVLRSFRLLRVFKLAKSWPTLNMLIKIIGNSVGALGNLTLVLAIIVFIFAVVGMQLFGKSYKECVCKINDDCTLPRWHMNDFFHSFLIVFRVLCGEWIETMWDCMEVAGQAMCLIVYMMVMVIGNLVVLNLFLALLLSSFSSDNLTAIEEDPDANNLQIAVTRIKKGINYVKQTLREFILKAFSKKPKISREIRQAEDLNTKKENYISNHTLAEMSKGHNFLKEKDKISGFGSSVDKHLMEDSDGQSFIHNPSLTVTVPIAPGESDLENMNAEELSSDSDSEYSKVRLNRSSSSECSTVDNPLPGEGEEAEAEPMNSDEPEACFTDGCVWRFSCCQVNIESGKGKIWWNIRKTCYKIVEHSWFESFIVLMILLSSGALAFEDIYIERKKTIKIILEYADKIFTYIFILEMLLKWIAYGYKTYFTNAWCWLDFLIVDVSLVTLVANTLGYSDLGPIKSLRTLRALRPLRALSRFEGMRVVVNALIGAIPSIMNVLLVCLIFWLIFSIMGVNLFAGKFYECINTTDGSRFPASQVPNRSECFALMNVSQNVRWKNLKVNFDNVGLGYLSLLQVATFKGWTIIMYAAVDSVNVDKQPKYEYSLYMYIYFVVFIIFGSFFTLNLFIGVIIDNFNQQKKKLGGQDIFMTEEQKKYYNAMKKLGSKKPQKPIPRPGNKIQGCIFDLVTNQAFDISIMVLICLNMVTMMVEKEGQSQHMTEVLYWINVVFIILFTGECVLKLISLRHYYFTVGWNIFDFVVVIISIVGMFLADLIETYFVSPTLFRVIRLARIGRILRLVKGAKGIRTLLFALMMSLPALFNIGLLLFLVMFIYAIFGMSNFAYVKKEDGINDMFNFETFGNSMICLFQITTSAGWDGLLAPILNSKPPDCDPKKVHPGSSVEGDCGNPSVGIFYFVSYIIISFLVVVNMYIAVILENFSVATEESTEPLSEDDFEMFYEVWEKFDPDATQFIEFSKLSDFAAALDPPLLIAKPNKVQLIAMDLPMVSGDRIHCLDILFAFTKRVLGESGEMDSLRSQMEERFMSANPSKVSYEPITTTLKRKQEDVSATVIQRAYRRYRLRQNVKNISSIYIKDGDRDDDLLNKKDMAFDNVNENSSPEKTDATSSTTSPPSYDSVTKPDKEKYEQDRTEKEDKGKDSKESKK

Compound | IC50
COc1ncccc1C(=O)N1CCC2(CC1)Oc1ccccc1-c1c2cnn1C [Compound 642] | 2000 to 5000 nM
Cn1ncc2c1-c1ccccc1OC21CCN(C(=O)c2ccc(S(=O)(=O)C(C)(C)C)cc2)CC1 [Compound 643] | 2000 to 5000 nM
Cn1ncc2c1-c1ccccc1OC21CCN(C(=O)c2cccc3cnn(C)c23)CC1 [Compound 644] | > 5000 nM
COc1ccc(C(=O)N2CCC3(CC2)Oc2ccccc2-c2nn(C)cc23)c(OC)c1OC [Compound 646] | ≤ 2000 nM
CC(C)Oc1ccc(C(=O)N2CCC3(CC2)Oc2ccccc2-c2c3cnn2C)cc1F [Compound 650] | ≤ 2000 nM
Cn1ncc2c1-c1ccccc1OC21CCN(C(=O)c2cccc3cccnc23)CC1 [Compound 651] | ≤ 2000 nM
Cn1cc2c(n1)-c1ccccc1OC21CCN(C(=O)c2ccnc3ccccc23)CC1 [Compound 652] | ≤ 2000 nM
Cn1ncc2c1-c1cc(Cl)ccc1OC21CCN(C(=O)c2ccccc2OC(F)(F)F)CC1 [Compound 653] | ≤ 2000 nM
Cc1cc(C(=O)N2CCC3(CC2)Oc2ccccc2-n2c(C#N)ccc23)ccc1OC(C)C [Compound 655] | ≤ 2000 nM
Cn1ncc2c1-c1ccccc1OC21CCN(C(=O)c2nccc3ccccc23)CC1 [Compound 657] | > 5000 nM
Cc1nc(C(=O)N2CCC3(CC2)Oc2ccccc2-n2c(C(F)(F)F)ccc23)ccc1OC(C)C [Compound 658] | ≤ 2000 nM
N#Cc1ccc2n1-c1ccccc1OC21CCN(C(=O)c2ccc(F)c(Cl)c2)CC1 [Compound 659] | > 5000 nM
COc1cc(OC)c(C(=O)N2CCC3(CC2)Oc2cc(F)ccc2-n2cccc23)cc1CO [Compound 660] | ≤ 2000 nM
CC(C)S(=O)(=O)c1ccc(C(=O)N2CCC3(CC2)Oc2cc(F)ccc2-c2c3cnn2C)cc1 [Compound 662] | 2000 to 5000 nM
Cn1ncc2c1-c1ccccc1OC21CCN(C(=O)c2ccc(S(=O)(=O)C(F)(F)F)cc2)CC1 [Compound 663] | ≤ 2000 nM
COc1ccc(C(=O)N2CCC3(CC2)Oc2ccccc2-c2c3cnn2C)c(OC(F)(F)F)c1 [Compound 664] | ≤ 2000 nM
COc1c(F)cccc1C(=O)N1CCC2(CC1)Oc1cc(Cl)ccc1-n1c(C#N)ccc12 [Compound 665] | ≤ 2000 nM
CC(C)[S+]([O-])c1ccc(C(=O)N2CCC3(CC2)Oc2ccccc2-c2c3cnn2C)cc1 (stereo not shown) [Compound 666] | 2000 to 5000 nM
Cn1ncc2c1-c1ccccc1OC21CCN(C(=O)c2ccc(Cl)cc2S(C)(=O)=O)CC1 [Compound 667] | > 5000 nM
COc1cc(C(=O)N2CCC3(CC2)Oc2ccccc2-c2c3cnn2C)ccc1OC[C@@H](C)OC [Compound 668] | ≤ 2000 nM
CCc1ccc(C(=O)N2CCC3(CC2)Oc2cc(COC)ccc2-n2cccc23)cc1OC [Compound 669] | ≤ 2000 nM
Cn1cc(C(=O)N2CCC3(CC2)Oc2cc(Cl)ccc2-n2cccc23)ccc1=O [Compound 670] | > 5000 nM
N#Cc1ccc2n1-c1ccccc1OC21CCN(C(=O)c2ccc(O)cc2)CC1 [Compound 671] | ≤ 2000 nM
COc1ccccc1C(=O)N1CCC2(CC1)Oc1ccccc1-c1c2cnn1C [Compound 672] | ≤ 2000 nM
COc1c(Cl)cccc1C(=O)N1CCC2(CC1)Oc1ccccc1-c1c2cnn1C [Compound 673] | ≤ 2000 nM
CCn1ncc2c1-c1cc(F)ccc1OC21CCN(C(=O)c2ccccc2OC)CC1 [Compound 674] | 2000 to 5000 nM

Compound | IC50
CNS(=O)(=O)c1ccc(C(=O)N2CCC3(CC2)Oc2ccccc2-n2c(C(F)(F)F)ccc23)cc1 [Compound 675] | ≤ 2000 nM
Cc1cc(C(=O)N2CCC3(CC2)Oc2ccccc2-n2c(CNC=O)ccc23)ccc1OC(C)C [Compound 677] | ≤ 2000 nM
COc1cc(C(=O)N2CCC3(CC2)Oc2ccccc2-n2cccc23)ccc1OC1CCC(O)C1 (stereo not shown) [Compound 678] | ≤ 2000 nM
CC(C)S(=O)(=O)c1ccc(C(=O)N2CCC3(CC2)Oc2cc(Cl)ccc2-n2c(C#N)ccc23)cc1 [Compound 679] | 2000 to 5000 nM
CC[C@@H](C)Oc1ccc(C(=O)N2CCC3(CC2)Oc2cc(Cl)ccc2-n2cccc23)cc1OC [Compound 681] | ≤ 2000 nM
CC(C)(O)Cc1ccc(C(=O)N2CCC3(CC2)Oc2ccccc2-n2c(C(F)(F)F)ccc23)cc1 [Compound 682] | ≤ 2000 nM
COc1cc(C(=O)N2CCC3(CC2)Oc2cc(F)ccc2-n2cccc23)ccc1O[C@@H]1CCOC1 [Compound 683] | ≤ 2000 nM
C[S+]([O-])c1ccc(C(=O)N2CCC3(CC2)Oc2ccccc2-n2c(C#N)ccc23)cc1C(F)(F)F (stereo not shown) [Compound 684] | ≤ 2000 nM
CC(C)(CO)S(=O)(=O)c1ccc(C(=O)N2CCC3(CC2)Oc2ccccc2-n2c(C(F)(F)F)ccc23)cc1 [Compound 685] | 2000 to 5000 nM
COc1cc(C(=O)N2CCC3(CC2)Oc2ccccc2-n2c(C#N)ccc23)ccc1OC(C)(C)C [Compound 686] | ≤ 2000 nM
COc1cc(C(=O)N2CCC3(CC2)Oc2ccccc2-n2cccc23)ccc1OCC(N)=O [Compound 687] | ≤ 2000 nM
Cc1cc(C(=O)N2CCC3(CC2)Oc2ccccc2-c2nn(C)cc23)ccc1OC(C)C [Compound 689] | ≤ 2000 nM
COc1cc(C(=O)N2CCC3(CC2)Oc2cc(Cl)ccc2-n2cccc23)ccc1O[C@H]1CCOC1 [Compound 690] | 2000 to 5000 nM
COc1cc(C(=O)N2CCC3(CC2)Oc2cc(F)ccc2-n2cccc23)ccc1OC[C@@H]1COC(C)(C)O1 [Compound 693] | ≤ 2000 nM
COc1cc(OC(C)C)ccc1C(=O)N1CCC2(CC1)Oc1ccccc1-c1c2cnn1C [Compound 694] | ≤ 2000 nM
CCc1ccc(C(=O)N2CCC3(CC2)Oc2cc(Cl)ccc2-n2cccc23)cc1OC [Compound 697] | ≤ 2000 nM
COc1cc(C(=O)N2CCC3(CC2)Oc2ccccc2-n2c(C#N)ccc23)ccc1C(C)(C)CO [Compound 698] | ≤ 2000 nM
COc1c(F)cccc1C(=O)N1CCC2(CC1)Oc1ccccc1-c1c2cnn1C [Compound 699] | ≤ 2000 nM
Cc1cc(C(=O)N2CCC3(CC2)Oc2ccccc2-c2c3cnn2C)ccc1O [Compound 700] | ≤ 2000 nM
Cc1ccc(C(=O)N2CCC3(CC2)Oc2ccccc2-c2c3cnn2C)cc1C [Compound 701] | 2000 to 5000 nM
COc1c(C(=O)N2CCC3(CC2)Oc2ccccc2-c2c3cnn2C)ccc(F)c1F [Compound 702] | 2000 to 5000 nM
COc1cccc(OC)c1C(=O)N1CCC2(CC1)Oc1cc(Cl)ccc1-n1cccc12 [Compound 703] | ≤ 2000 nM
Cn1ncc2c1-c1ccccc1OC21CCN(C(=O)c2ccc(OC(C)(C)C)cc2F)CC1 [Compound 704] | ≤ 2000 nM
CC(C)n1ncc2c1-c1ccccc1OC21CCN(C(=O)c2ccccc2OC(F)F)CC1 [Compound 705] | ≤ 2000 nM
COCCOc1cc(C(=O)N2CCC3(CC2)Oc2cc(Cl)ccc2-n2cccc23)ccn1 [Compound 706] | ≤ 2000 nM
CCCOc1ccc(C(=O)N2CCC3(CC2)Oc2ccccc2-c2c3cnn2C)cc1C [Compound 709] | ≤ 2000 nM

Compound | IC50
Cc1ccc(OC(C)C)c(C(=O)N2CCC3(CC2)Oc2ccccc2-c2c3cnn2C)c1 [Compound 710] | ≤ 2000 nM
CC(C)C(O)c1ccc(C(=O)N2CCC3(CC2)Oc2ccccc2-c2c3cnn2C)cc1 (stereo not shown) [Compound 711] | ≤ 2000 nM
CCc1ccc(C(=O)N2CCC3(CC2)Oc2cc(C(=O)NC)ccc2-n2cccc23)cc1OC [Compound 713] | ≤ 2000 nM
CN(C)S(=O)(=O)c1ccc(C(=O)N2CCC3(CC2)Oc2ccccc2-c2c3cnn2C)cc1 [Compound 714] | 2000 to 5000 nM
COc1cc(C(=O)N2CCC3(CC2)Oc2ccccc2-c2c3cnn2C)ccc1C(C)(C)CO [Compound 716] | ≤ 2000 nM
Cn1c(C(=O)N2CCC3(CC2)Oc2cc(Cl)ccc2-n2cccc23)cccc1=O [Compound 718] | 2000 to 5000 nM
CC(C)NS(=O)(=O)c1ccc(C(=O)N2CCC3(CC2)Oc2ccccc2-n2c(C#N)ccc23)cc1 [Compound 721] | ≤ 2000 nM
CC(C)(O)c1ccc(C(=O)N2CCC3(CC2)Oc2ccccc2-n2c(C(F)(F)F)ccc23)cc1 [Compound 722] | ≤ 2000 nM
COC(=O)C(C)(C)c1ccc(C(=O)N2CCC3(CC2)Oc2cc(Cl)ccc2-n2cccc23)cc1OC [Compound 723] | ≤ 2000 nM
COc1cccc(C(=O)N2CCC3(CC2)Oc2cc(Cl)ccc2-n2cccc23)c1 [Compound 724] | ≤ 2000 nM
COC[C@H](C)Oc1ccc(C(=O)N2CCC3(CC2)Oc2ccccc2-n2cccc23)cc1OC [Compound 725] | ≤ 2000 nM
CC(C)(O)c1ccc(C(=O)N2CCC3(CC2)Oc2ncccc2-n2c(C(F)(F)F)ccc23)cc1 [Compound 726] | ≤ 2000 nM
COc1cc(C(=O)N2CCC3(CC2)Oc2ccccc2-n2cccc23)ccc1OC(C)(C)C [Compound 727] | ≤ 2000 nM
CCn1cccc(C(=O)N2CCC3(CC2)Oc2cc(Cl)ccc2-n2cccc23)c1=O [Compound 728] | ≤ 2000 nM
COc1ccc(C(=O)N2CCC3(CC2)Oc2cc(Cl)ccc2-n2cccc23)c(OC(F)(F)F)c1 [Compound 729] | ≤ 2000 nM
Cc1cc(C(=O)N2CCC3(CC2)Oc2ccccc2-n2c(C(F)(F)F)ccc23)ccc1O [Compound 732] | ≤ 2000 nM
Cc1cc(C(=O)N2CCC3(CC2)Oc2ccccc2-n2c(CN)ccc23)ccc1OC(C)C [Compound 733] | 2000 to 5000 nM
COc1cc(OC(C)(C)C#N)ccc1C(=O)N1CCC2(CC1)Oc1ccccc1-c1c2cnn1C [Compound 734] | ≤ 2000 nM
CCc1ccc(C(=O)N2CCC3(CC2)Oc2ccccc2-n2c(C)ccc23)cc1OC [Compound 735] | ≤ 2000 nM
COc1ccc(C(=O)N2CCC3(CC2)Oc2cc(Cl)ccc2-n2cccc23)cc1S(N)(=O)=O [Compound 736] | > 5000 nM
Cc1cc(C(=O)N2CCC3(CC2)Oc2cc(Cl)ccc2-n2cccc23)ccc1OC(C)C [Compound 737] | ≤ 2000 nM
CCOc1cccc(C(=O)N2CCC3(CC2)Oc2ccccc2-c2c3cnn2C)c1F [Compound 738] | 2000 to 5000 nM
COc1cccc(F)c1C(=O)N1CCC2(CC1)Oc1cc(Cl)ccc1-n1cccc12 [Compound 739] | ≤ 2000 nM
Cn1cc2c(n1)-c1ccccc1OC21CCN(C(=O)c2ccccc2OC(F)F)CC1 [Compound 740] | ≤ 2000 nM
